One may read the GI50 as the concentration at which growth is held to half of that of the control.

Common to all, as to format: cell-based
Test [1] relates to T-Rex 293 cells having increased expression of estrogen receptor alpha protein. Nature of the test: Cellular growth inhibition assay, T-Rex 293 cells, (+) doxycycline. Particulars: T-REx-293, 72 h, Table 7-A; T-Rex 293 cells with doxycycline (increased ERα expression); 72 hours; CellTiter-Glo; read-out: (+) Dox GI50. In outline: (§1)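 ERα overexpression was switched on by 3 ng/mL doxycycline in a stably transfected T-Rex 293 clone, while uninduced cells served as the comparison line. Proliferation over 72 h of compound treatment was assessed by ATP luminescence, and GI50 values came from four-parameter curves.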
On the technique in general: Cellular ATP, detected with luciferase, serves as a proxy for viable cell number.

For test [2], the system named is T-Rex 293 cells lacking increased expression of estrogen receptor alpha protein. Nature of the test: Cellular growth inhibition assay, T-Rex 293 cells, (−) doxycycline. Particulars: T-REx-293, 72 h, Table 7-A; T-Rex 293 cells without doxycycline (lacking increased ERα expression); 72 hours; CellTiter-Glo; read-out: (−) Dox GI50. In outline: as §1
Test [3] deals with MCF7 cells (ATCC #HTB-22). Nature of the test: Cellular growth inhibition assay, MCF7 cells purchased from ATCC. Particulars: Homo sapiens, MCF7, 144 h, Table 8-A; MCF7 cells purchased from ATCC; six days; CellTiter-Glo; read-out: GI50. In outline: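 MCF7 cells in RPMI 1640 with 10% FBS and 0.2 U/ml insulin, seeded at 1,500 cells/well (ATCC) or 225 cells/well (ECACC). Compounds added 24 h later, then 6 days at 37° C. Viability by CellTiter-Glo 2.0 luminescence. GI50 from four-parameter fit.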

On to `Cc1sc2c(c1C)C(c1ccc(N3CCC(CC4(O)CCN(c5ccc([C@@H]6c7ccc(O)cc7CC[C@@H]6c6ccccc6)cc5)CC4)CC3)cc1)=N[C@@H](Cc1ncco1)c1nnc(C)n1-2` [III-164], for which the GI50 in test [1] was < 50 nM; in test [2] it was 50 to 500 nM; in test [3], < 50 nM.
In the case of `Cc1sc2c(c1C)C(c1ccc(N3CC(C(=O)N4CCN(CC5CN(c6ccc([C@@H]7c8ccc(O)cc8CC[C@@H]7c7ccccc7)cc6)C5)CC4)C3)cc1)=N[C@@H](C)c1nnc(C)n1-2` [III-165], the GI50 was < 50 nM in test [1], 50 to 500 nM in test [2] and < 50 nM in test [3].
`Cc1sc2c(c1C)C(c1ccc(N3CC(CN4CCN(CC5(O)CN(c6ccc([C@@H]7c8ccc(O)cc8CC[C@@H]7c7ccccc7)cc6)C5)CC4)C3)cc1)=N[C@@H](C)c1nnc(C)n1-2` [III-166]: the values for the GI50 in test [1], in test [2] and in test [3] were < 50 nM, 50 to 500 nM and 50 to 500 nM, respectively.
Regarding `CC1=C(C)C2C(c3ccc(N4CC(O)(CC5CCN(c6ccc([C@@H]7c8ccc(O)cc8CC[C@@H]7c7ccccc7)cc6)CC5)C4)cc3)=N[C@@H](Cc3ncco3)c3nnc(C)n3C2S1` (stereo partly drawn) [III-167], the GI50 was < 50 nM in test [1], 50 to 500 nM in test [2] and < 50 nM in test [3].
On to `Cc1sc2c(c1C)C(c1ccc(N3CC(C(=O)N4CCN(CC5CN(c6ccc([C@@H]7c8ccc(O)cc8CC[C@@H]7c7ccccc7)cc6)C5)CC4)C3)cc1)=N[C@@H](Cc1ncco1)c1nnc(C)n1-2` [III-168], for which the GI50 in test [1] was < 50 nM; in test [2], 50 to 500 nM; in test [3], < 50 nM.
For `Cc1sc2c(c1C)C(c1ccc(C3CN(CC4(O)CCN(CC5CN(c6ccc([C@@H]7c8ccc(O)cc8CC[C@@H]7c7ccccc7)cc6)C5)CC4)C3)cc1)=N[C@@H](Cc1ncco1)c1nnc(C)n1-2` [III-169], the GI50 was < 50 nM in test [1], 50 to 500 nM in test [2] and 50 to 500 nM in test [3].
For `Cc1sc2c(c1C)C(c1ccc(N3CCC(C(=O)N4CC(c5ccc([C@@H]6c7ccc(O)cc7CC[C@@H]6c6ccccc6)cc5)C4)CC3)cc1)=N[C@@H](C)c1nnc(C)n1-2` [III-170], the GI50 in test [1] was < 50 nM; in test [2], 50 to 500 nM; in test [3], 50 to 500 nM.
Regarding `Cc1sc2c(c1C)C(c1ccc(C3CN(CC4(O)CCN(C(=O)C5CN(c6ccc([C@@H]7c8ccc(O)cc8CC[C@@H]7c7ccccc7)cc6)C5)CC4)C3)cc1)=N[C@@H](C)c1nnc(C)n1-2` [III-171], the GI50 in test [1] was < 50 nM; in test [2], 50 to 500 nM; in test [3], 50 to 500 nM.
For `Cc1sc2c(c1C)C(c1ccc(C3CN(C(=O)C4CCN(CC5CN(c6ccc([C@@H]7c8ccc(O)cc8CC[C@@H]7c7ccccc7)cc6)C5)CC4)C3)cc1)=N[C@@H](C)c1nnc(C)n1-2` [III-172], the GI50 was < 50 nM in test [1], 50 to 500 nM in test [2] and 50 to 500 nM in test [3].
For `Cc1sc2c(c1C)C(c1ccc(N3CC(CN4CCC(C(=O)N5CC(c6ccc([C@@H]7c8ccc(O)cc8CC[C@@H]7c7ccccc7)cc6)C5)CC4)C3)cc1)=N[C@@H](C)c1nnc(C)n1-2` [III-173], the GI50 in test [1] is < 50 nM; in test [2], 50 to 500 nM; in test [3], < 50 nM.
On to `CC1=C(C)C2C(c3ccc(N4CCC(C(=O)N5CC(c6ccc([C@@H]7c8ccc(O)cc8CC[C@@H]7c7ccccc7)cc6)C5)CC4)cc3)N[C@@H](Cc3ncco3)c3nnc(C)n3C2S1` (stereo partly drawn) [III-174], for which the GI50 in test [1] is < 50 nM; in test [2] it was 50 to 500 nM; in test [3], < 50 nM.
Regarding `Cc1sc2c(c1C)C(c1ccc(C3CN(C(=O)C4CCN(CC5CN(c6ccc([C@@H]7c8ccc(O)cc8CC[C@@H]7c7ccccc7)cc6)C5)CC4)C3)cc1)=N[C@@H](Cc1ncco1)c1nnc(C)n1-2` [III-175], the GI50 in test [1] was < 50 nM; in test [2], 50 to 500 nM; in test [3], < 50 nM.

These data come from patent US12558428B2, “Heterobifunctional compounds and their use in treating disease” (Halda Therapeutics OpCo, Inc., priority 2024, dated 2026).
